{"source": "paper PMC6720883", "about": "“In Vitro Inhibitory Effects of APINACA on Human Major Cytochrome P450, UDP-Glucuronosyltransferase Enzymes, and Drug Transporters” (Molecules, 2019)", "key": {"[1]": {"target": "T1, UGT1A9 (Homo sapiens, UniProt O60656)", "T1 sequence (O60656 26-530)": "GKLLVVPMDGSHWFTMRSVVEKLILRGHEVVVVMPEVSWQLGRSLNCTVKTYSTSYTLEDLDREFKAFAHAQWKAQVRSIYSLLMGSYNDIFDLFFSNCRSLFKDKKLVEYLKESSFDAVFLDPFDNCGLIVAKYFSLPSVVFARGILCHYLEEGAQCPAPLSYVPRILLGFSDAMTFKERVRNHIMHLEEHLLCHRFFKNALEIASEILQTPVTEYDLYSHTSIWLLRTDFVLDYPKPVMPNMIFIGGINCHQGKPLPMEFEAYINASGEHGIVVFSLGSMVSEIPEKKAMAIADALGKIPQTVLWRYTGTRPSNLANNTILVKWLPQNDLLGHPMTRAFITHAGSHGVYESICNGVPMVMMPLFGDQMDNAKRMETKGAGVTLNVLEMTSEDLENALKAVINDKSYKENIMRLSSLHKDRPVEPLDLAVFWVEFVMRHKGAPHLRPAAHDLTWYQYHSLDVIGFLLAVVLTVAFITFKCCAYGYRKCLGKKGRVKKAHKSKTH", "experiment": "Enzyme kinetic analysis of UGT1A9 inhibition (Dixon plot) in human liver microsomes", "format": "in vitro ADME", "design": "[…]; tissue Corning Life Sciences", "procedure": "The reaction was stopped by adding 100 μL of ice cold acetonitrile containing propofol glucuronide (internal standard), and the mixtures were centrifuged at 13,000× g for 4 min.\n(§1) 12.5 (Systat Software, Inc.; San Jose, CA, USA). […] 1.1 (Systat Software, Inc.)."}, "[2]": {"target": "CYP3A4 (Homo sapiens, UniProt P08684)", "sequence (P08684 2-503)": "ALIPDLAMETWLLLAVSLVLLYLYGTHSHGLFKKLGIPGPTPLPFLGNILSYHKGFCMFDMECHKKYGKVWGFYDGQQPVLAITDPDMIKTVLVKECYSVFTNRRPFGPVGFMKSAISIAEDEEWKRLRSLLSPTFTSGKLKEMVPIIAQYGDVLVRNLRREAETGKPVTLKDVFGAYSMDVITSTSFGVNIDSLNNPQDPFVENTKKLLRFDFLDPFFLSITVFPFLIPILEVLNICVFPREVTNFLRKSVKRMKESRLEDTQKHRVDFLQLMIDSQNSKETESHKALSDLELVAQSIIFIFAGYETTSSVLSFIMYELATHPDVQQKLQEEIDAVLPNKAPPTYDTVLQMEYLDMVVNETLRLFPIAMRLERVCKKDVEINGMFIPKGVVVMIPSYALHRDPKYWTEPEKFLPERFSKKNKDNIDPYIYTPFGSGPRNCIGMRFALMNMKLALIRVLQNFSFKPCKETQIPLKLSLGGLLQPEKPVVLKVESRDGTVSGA", "experiment": "Time-dependent inhibition kinetics of CYP3A4 midazolam 1′-hydroxylation in human liver microsomes", "format": "in vitro ADME", "procedure": "The kinetic parameters for the time-dependent inhibition potency of APINACA against human liver microsomal CYP3A4 activity were evaluated. Ultrapooled human liver microsomes (1 mg/mL) were preincubated with various concentrations of APINACA (final concentrations of 1–40 μM) in 50 mM potassium phosphate buffer (pH 7.4) in the presence of NADPH. Aliquots (10 μL) of the preincubated mixtures were withdrawn 5, 10, 20, and 30 min after incubation was commenced and were added to other tubes containing 2 μM midazolam, 1 mM NADPH, 50 mM potassium phosphate buffer (pH 7.4), and 10 mM MgCl2 in 90-μL reaction mixtures. The second reactions were terminated after 10 min by adding 100 μL of ice cold methanol containing d9-1′-hydroxybufuralol. […] Aliquots (5 μL) of the diluted supernatants were analyzed by LC–MS/MS.\nas §1"}, "[3]": {"target": "UGT1A4 (Homo sapiens, UniProt P22310)", "sequence (P22310 29-534)": "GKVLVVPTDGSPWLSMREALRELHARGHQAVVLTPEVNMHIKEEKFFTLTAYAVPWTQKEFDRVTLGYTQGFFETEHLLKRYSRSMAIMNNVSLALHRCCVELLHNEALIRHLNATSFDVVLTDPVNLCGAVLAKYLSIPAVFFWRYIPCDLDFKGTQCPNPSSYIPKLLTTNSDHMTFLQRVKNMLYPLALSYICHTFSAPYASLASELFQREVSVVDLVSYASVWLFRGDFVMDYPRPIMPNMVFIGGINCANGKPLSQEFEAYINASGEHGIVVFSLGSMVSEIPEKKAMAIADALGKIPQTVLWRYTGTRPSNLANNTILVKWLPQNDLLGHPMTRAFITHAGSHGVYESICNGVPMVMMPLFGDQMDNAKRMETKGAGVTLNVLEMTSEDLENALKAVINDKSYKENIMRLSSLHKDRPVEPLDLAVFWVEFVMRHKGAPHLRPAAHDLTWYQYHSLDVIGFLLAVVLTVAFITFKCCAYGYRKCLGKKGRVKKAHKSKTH", "experiment": "Inhibition of UGT1A4-catalyzed trifluoperazine N-glucuronidation in human liver microsomes", "procedure": "The inhibitory effect of APINACA and typical UGT inhibitors on UGT1A1, UGT1A3, UGT1A4, UGT1A6, UGT1A9, and UGT2B7 were evaluated following our previous method by LC–MS/MS after incubation of ultrapooled human liver microsomes with a cocktail of UGT substrates. […] The reactions were initiated by adding UDPGA, and the incubation continued for 60 min at 37 °C in a shaking water bath. The reactions were terminated by adding 50 μL of ice-cold acetonitrile containing internal standards (propofol glucuronide for chenodeoxycholic acid 24-acyl-β-glucuronide and mycophenolic acid glucuronide; and meloxicam for SN-38 glucuronide, trifluoperazine glucuronide, N-acetylserotonin β-D-glucuronide, and naloxone 3-β-D-glucuronide). The incubation mixtures were centrifuged at 13,000× g for 8 min at 4 °C. Next, 50 μL of each supernatant of A and B set was mixed, and aliquots (5 μL) were analyzed by LC–MS/MS. All assays were performed in triplicate, and the average values were used in calculations.\nTo measure the time-dependent inhibition, human liver microsomes were preincubated with the various concentrations of APINACA (final concentrations of 0.1–100 μM) and UDPGA for 30 min at 37 °C. Next, the reaction mixtures were incubated with UGT probe substrate cocktail sets for 60 min at 37 °C. The control reaction was performed by adding methanol instead of the test compounds.\n1.1 (Systat Software, Inc.)."}}, "note": "Read-outs that look alike come from different tables or passages of the source.", "data": [{"smiles": "CCCCCn1nc(C(=O)NC23CC4CC(CC(C4)C2)C3)c2ccccc21", "note": "[APINACA, N-(1-adamantyl)-1-pentyl-1H-indazole-3-carboxamide]", "values": [{"measurement": "Ki", "setting": "[1]", "value": 5.9, "unit": "µM"}, {"measurement": "mode of inhibition of UGT1A9-catalyzed mycophenolic acid glucuronidation", "setting": "[1]; human liver microsomes, enzyme kinetics study", "value": "noncompetitively inhibited"}, {"measurement": "inactivation efficiency (kinact/Ki) for time-dependent inhibition of CYP3A4", "setting": "[2]; human liver microsomes", "value": 10.4, "unit": "mL/µmol/min"}, {"measurement": "kinact", "setting": "[2]; pH 7.4, probe midazolam 2 μM (1′-hydroxylation), ultrapooled human liver microsomes, time-dependent inhibition, read-out: kinact for time-dependent inhibition of CYP3A4-catalyzed midazolam 1′-hydroxylase (converted)", "value": 0.000781, "unit": "s⁻¹"}, {"measurement": "IC50", "setting": "[3]", "value": "> 100", "unit": "µM"}, {"measurement": "IC50", "setting": "[3]; read-out: IC50 UGT1A4 trifluoperazine N-glucuronidation, with 30-min preincubation, pooled human liver microsomes, 30-min preincubation with UDPGA (○)", "value": "> 100", "unit": "µM"}]}]}
